According to ChEMBL document CHEMBL1201862, “PubChem BioAssay data set” (2004):
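Five compound concentrations were applied to cells in 96-well plates for 48 hours; endpoints were derived by simple linear interpolation of the resulting dose-response curve. GI50 marks 50% less growth.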 Activity calls are given as the source filed them. No stated cut-off is given here; in the data, active = GI50 up to about 1.1 µM and inactive = higher.

Key:
Experiment in all cases: NCI tumour cell line growth inhibition, 48 h
786-0 = test system: 786-0
HCT-15 = test system: HCT-15
MOLT-4 = test system: MOLT-4
OVCAR-3 = test system: OVCAR-3
SN12C = test system: SN12C
SW-620 = test system: SW-620
EKVX = test system: EKVX
SNB-78 = test system: SNB-78
HT-29 = test system: HT-29
OVCAR-5 = test system: OVCAR-5
Malme-3M = test system: Malme-3M
NCI-H460 = test system: NCI-H460
M19-MEL = test system: M19-MEL
HL-60 = test system: HL-60
U-251 = test system: U-251
HOP-62 = test system: HOP-62
PC-3 = test system: PC-3
Hs-578T = test system: Hs-578T
MDA-N = test system: MDA-N
DU-145 = test system: DU-145

Structure (SMILES)	GI50 (786-0)	GI50 (HCT-15)	GI50 (MOLT-4)	GI50 (OVCAR-3)	GI50 (SN12C)	GI50 (SW-620)	GI50 (EKVX)	GI50 (SNB-78)	GI50 (HT-29)	GI50 (OVCAR-5)	GI50 (Malme-3M)	GI50 (NCI-H460)	GI50 (M19-MEL)	GI50 (HL-60)	GI50 (U-251)	GI50 (HOP-62)	GI50 (PC-3)	GI50 (Hs-578T)	GI50 (MDA-N)	GI50 (DU-145)
COc1cc2c(cc1OC)[C@@H]([C@H](O)c1ccccc1)NCC2	> 100 µM (inactive)	> 100 µM	> 100 µM (inactive)	> 100 µM (inactive)	> 100 µM (inactive)	> 100 µM (inactive)	> 97.7 µM (inactive)	> 100 µM (inactive)	> 100 µM (inactive)	> 100 µM (inactive)	> 100 µM (inactive)	> 100 µM (inactive)	> 100 µM (inactive)	> 100 µM (inactive)	> 100 µM (inactive)	> 100 µM (inactive)				
CCOc1ccc(/C(Cl)=C(\C=O)c2ccc(OC)c(OC)c2)cc1OCC	64.9 µM (inactive)	28.3 µM	27.9 µM (inactive)	> 100 µM (inactive)	44.6 µM (inactive)	83.9 µM (inactive)	65.2 µM (inactive)	36.8 µM (inactive)	41.1 µM (inactive)	> 100 µM (inactive)	37.5 µM (inactive)	83.4 µM (inactive)	33 µM (inactive)	21.7 µM (inactive)	32.9 µM (inactive)	30.1 µM (inactive)				
COc1cc(C2C(Cl)C(=O)N2NC(=O)Cc2ccccc2)ccc1O (stereo unspecified)	83.2 µM (inactive)	> 100 µM	24.6 µM (inactive)	33.3 µM (inactive)	> 100 µM (inactive)	68.4 µM (inactive)	> 100 µM (inactive)	> 100 µM (inactive)	73.3 µM (inactive)	> 100 µM (inactive)	> 100 µM (inactive)	> 100 µM (inactive)	> 100 µM (inactive)	28.1 µM (inactive)	79.3 µM (inactive)	> 100 µM (inactive)				
CN(C)CCCCCNc1c2ccccc2nc2cccc([N+](=O)[O-])c12	0.00133 µM (active)		0.000807 µM (active)	0.00146 µM (active)	0.00186 µM (active)	0.000877 µM (active)	0.00402 µM (active)	0.00565 µM (active)	0.0011 µM (active)	0.00182 µM (active)	0.00185 µM (active)	0.000223 µM (active)	0.00512 µM (active)	0.00143 µM (active)	0.0011 µM (active)	0.00149 µM (active)	0.000313 µM (active)	0.00197 µM (active)	0.000187 µM (active)	0.000404 µM (active)
ClCc1ccc(C2OCCO2)cc1	23.3 µM (inactive)	16.7 µM	13.8 µM (inactive)	22.3 µM (inactive)	16.6 µM (inactive)	16.8 µM (inactive)	> 43.2 µM (inactive)	14.4 µM (inactive)	15.9 µM (inactive)	> 48.9 µM (inactive)	20.3 µM (inactive)	19.2 µM (inactive)	14 µM (inactive)	3.36 µM (inactive)	12.2 µM (inactive)	24.9 µM (inactive)				
COc1ccc(/C(Cl)=C(\C=O)c2ccc(OC)c(OC)c2)cc1OC	> 100 µM (inactive)	83 µM	> 100 µM (inactive)	> 46.8 µM (inactive)	> 100 µM (inactive)	> 100 µM (inactive)	> 100 µM (inactive)	> 100 µM (inactive)	41.6 µM (inactive)	> 45.6 µM (inactive)	56.5 µM (inactive)	91.4 µM (inactive)	99.3 µM (inactive)	22.2 µM (inactive)	> 100 µM (inactive)	> 84.7 µM (inactive)	> 100 µM (inactive)	> 100 µM (inactive)	> 100 µM (inactive)	> 100 µM (inactive)
Cc1ccc(/C=C2\CNC/C(=C\c3ccc(C)cc3)C2=O)cc1	1.35 µM (inactive)	1.49 µM	2.22 µM (inactive)	2.96 µM (inactive)	2.52 µM (inactive)	1.12 µM (inactive)	3.92 µM (inactive)	> 100 µM (inactive)	0.617 µM (active)	3.87 µM (inactive)	14.4 µM (inactive)	1.48 µM (inactive)	1.57 µM (inactive)	0.479 µM (active)	0.341 µM (active)	2.72 µM (inactive)	2.62 µM (inactive)	1.89 µM (inactive)	2.49 µM (inactive)	4.48 µM (inactive)
CCNC(=O)COc1ccc(Cl)cc1Cl	> 100 µM (inactive)	> 100 µM	> 100 µM (inactive)	> 100 µM (inactive)	> 100 µM (inactive)	> 100 µM (inactive)	55.7 µM (inactive)	> 100 µM (inactive)	> 100 µM (inactive)	> 100 µM (inactive)	> 100 µM (inactive)	> 100 µM (inactive)	> 100 µM (inactive)	> 100 µM (inactive)	> 100 µM (inactive)	> 100 µM (inactive)				
CS/C(=N\c1ccccc1Cl)NC(=O)c1ccc(Br)cc1	27.1 µM (inactive)	> 100 µM	18.5 µM (inactive)	> 100 µM (inactive)	> 100 µM (inactive)	> 100 µM (inactive)	> 100 µM (inactive)	19.1 µM (inactive)	> 100 µM (inactive)	> 100 µM (inactive)	33.9 µM (inactive)	> 100 µM (inactive)	> 100 µM (inactive)	34 µM (inactive)	39.5 µM (inactive)	21.3 µM (inactive)				
Cc1ccccc1NC(=O)/C(=N\NC(N)=S)C(C#N)c1ccccc1 (stereo unspecified)	> 100 µM (inactive)	> 100 µM	> 100 µM (inactive)	> 100 µM (inactive)	> 100 µM (inactive)	> 100 µM (inactive)	> 100 µM (inactive)	> 100 µM (inactive)	> 100 µM (inactive)	> 100 µM (inactive)	> 100 µM (inactive)	> 100 µM (inactive)	> 100 µM (inactive)	> 100 µM (inactive)	> 100 µM (inactive)	> 100 µM (inactive)				
